Results: US11352400B2, “PI3K gamma inhibitor peptide for treatment of respiratory system diseases” (Kither Biotech S.r.I., priority 2014, dated 2022)

How the values were obtained:
[1] = target: T1, association of PI3Kγ with PKA RII (Homo sapiens, UniProt P13861); conditions: in vitro, previous study (1); cited from earlier work
T1 construct: the regulatory subunit of PKA (PKA RII) was immunoprecipitated by incubating the protein extract; expressed in transfected cells; host or cells: HEK293 (ATCC CRL-1573) transfected with pcDNA3.1-PI3Kγ; PKA RII endogenous
T1 sequence (P13861 whole entry): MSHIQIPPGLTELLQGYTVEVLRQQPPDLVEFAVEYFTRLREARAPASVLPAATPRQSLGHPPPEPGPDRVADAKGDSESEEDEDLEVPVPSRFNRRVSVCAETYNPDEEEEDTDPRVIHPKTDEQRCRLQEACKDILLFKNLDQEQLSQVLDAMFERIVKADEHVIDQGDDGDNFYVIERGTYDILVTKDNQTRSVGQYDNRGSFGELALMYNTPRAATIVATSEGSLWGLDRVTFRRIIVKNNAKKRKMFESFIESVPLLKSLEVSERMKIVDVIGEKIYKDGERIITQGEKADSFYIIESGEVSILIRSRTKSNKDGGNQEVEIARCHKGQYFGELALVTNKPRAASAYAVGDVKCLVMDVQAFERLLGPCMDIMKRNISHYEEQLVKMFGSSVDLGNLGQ

[2] = tested on: PI3Kγ-bound phosphodiesterase 3B; conditions: in vitro, previous study (1); cited from earlier work
[3] = tested on: wild-type CFTR; experiment: Chloride currents in Ussing chamber, NuLi-1 cells; assay type: cell-based, human; conditions: peptide 10-30 μM, P1 30 μM
Protocol: (§1) Human airway epithelial cell lines expressing a wild-type CFTR (NuLi-1) or with the ΔF508 mutation (CuFi-1) were purchased from ATCC (NuLi-1 product code: ATCC® CRL-4011™; CuFi-1 product code: ATCC® CRL-4013™). Cells were cultured in Dulbecco's Modified Eagle Medium (DMEM, Gibco, Carlsbad, Calif.) supplemented with 10% fetal bovine serum (FBS), 30 μg/mL of penicillin, 100 μg/mL of streptomycin and 300 μg/mL hygromycin B (Gibco, Carlsbad, Calif.).
(§2) To measure chloride currents in normal and ΔF508 primary human bronchial epithelial cells, cells were cultured on 1.12 cm^2 Snapwell inserts. Filters were mounted in Ussing chambers, and a chloride gradient was applied by incubating the cells in a basolateral high-chloride buffer containing (in mmol/L): 140 NaCl, 5 KCl, 0.36 K2HPO4, 0.44 KH2PO4, 1.3 CaCl2, 0.5 MgCl2, 4.2 NaHCO3, 10 HEPES, and 10 glucose, at pH 7.4 and an apical low-chloride buffer containing (in mmol/L): 133.3 Na-gluconate, 5 K-gluconate, 2.5 NaCl, 0.36 K2HPO4, 0.44 KH2PO4, 5.7 CaCl2, 0.5 MgCl2, 4.2 NaHCO3, 10 HEPES, and 10 mannitol, at pH 7.4. Buffers were aerated with a mixture of 95% O2 and 5% CO2 and the temperature was maintained at 37° C. during the experiment. […] After a stabilization period of 30 minutes, drugs were added at specific times, while the current was continuously recorded.

[4] = tested on: ΔF508-CFTR; experiment: Chloride currents in Ussing chamber, CuFi-1 cells; assay type: cell-based, human; conditions: CuFi-1 cells corrected with VX-809 (20 μM, 24 hours); P1 10 μM, VX-770 10 μM
Protocol: as §1, §2

[5] = tested on: β2-AR/cAMP signaling; experiment: FRET imaging of cAMP (ICUE3 probe) in hBSMCs after β2-AR stimulation; assay type: cell-based, human; conditions: hBSMCs pre-treated 50 μM, 30 minutes; ISO 100 nM + CGP-20712A 100 nM
Protocol: Human bronchial smooth muscle cells (hBSMCs) were transfected with a plasmid encoding the FRET probe for cAMP, ICUE3 (described in the U.S. Pat. No. 8,236,523 B2) (2), by electroporation with a Nucleofector device (AMAXA, Gaithersburg, Md.), according to the manufacturer's protocol. Briefly, 1×10^6 cells were re-suspended in 100 μL of nucleofection solution (VPI-1004, AMAXA, Gaithersburg, Md.), mixed with 1 μg of pcDNA3-ICUE3 (described in U.S. Pat. No. 8,236,523 B2), and subjected to electroporation in a nucleofection apparatus of Amaxa Biosystems (Program A-033). Live cell imaging experiments were performed at 24 hours after transfection.
Measurements of cAMP levels were performed on human bronchial smooth muscle cells (hBSMCs) that express the FRET probe ICUE3, as described previously (2). Briefly, cells were maintained in a K^+-Ringer solution containing (in mmol/L) 121.6 NaCl, 5.4 KCl, 1.8 MgCl2, 1.8 CaCl2, 4 NaHCO3, 0.8 NaH2PO4, 5 D-glucose, 5 sodium pyruvate, 10 HEPES, at pH 7.4. […] FRET efficiency was calculated using the “Method 3” provided by the Leica wizard application for FRET imaging and sensitized emission, according to which: EA(i)=B/A, where EA(i) is the apparent FRET efficiency; A and B are the intensities of the CFP channel and FRET, respectively. […]

[6] = tested on: hBSMCs; experiment: Measurements of calcium transients (Indo-1) in hBSMCs; assay type: cell-based, human; conditions: 50 μM, 30 minutes, 40 mM KCl depolarizing solution
Protocol: Cells were washed with a Tyrode solution containing (in mmol/L): 5 HEPES, 154 NaCl, 4 KCl, 2 CaCl2, 1 MgCl2, 5.5 D-glucose, at pH 7.35 and placed on an inverted microscope. Cells were kept in Tyrode solution and treated with a KCl depolarizing solution containing (in mmol/L): 5 HEPES, 118 NaCl, 40 KCl, 2 CaCl2, 1 MgCl2, 5.5 D-glucose, at pH 7.35. Calcium transients were analyzed as the ratio of fluorescence signals measured at 400 nm and 490 nm following excitation of Indo-1-AM-loaded cells at 350 nm. Experiments were recorded and analyzed with Igor® Software, using the functions added by Jason Rothman (Neuromatic, www.thinkrandom.com).

| Sequence | PKA anchoring (PI3Kγ-PKA interaction) [1] | activity of PI3Kγ-bound phosphodiesterase 3B [2] | CFTR-dependent Cl− currents [3] | CFTR activity in the presence of VX-770 [4] | increase of cAMP accumulation following stimulation of β2-ARs [5] | influx of Ca2+ induced by KCl (through VOCCs) [6] |
| --- | --- | --- | --- | --- | --- | --- |
| KATHRSPGQIHLVQRHPPSEESQAF (homo sapiens) [SEQ ID No.: 1] | inhibits | decreases |  |  |  |  |
| RQIKIWFQNRRMKWKK (Antennapedia penetratin 1) [P1 control peptide, cell-penetrating Penetratin 1 of Antennapedia, used as control peptide, reference compound] |  |  | did not change | did not change | unchanged | unchanged |
